In patent publication US7163954B2, “Substituted naphthyl benzothiophene acids” (Wyeth, priority 2003, dated 2007):

Experiments:
[1] = molecular target: T1, recombinant human plasminogen activator inhibitor-1 (PAI-1) (Homo sapiens, UniProt P05121); assay: Primary screen for the PAI-1 inhibition (residual tPA activity, Spectrozyme-tPA chromogenic substrate); assay type: biochemical; details: 25 μM test compound; inhibition of Plasminogen Activator Inhibitor-1
T1 construct: purchased Molecular Innovations, Royal Oak, Mich
T1 sequence (P05121 24-402): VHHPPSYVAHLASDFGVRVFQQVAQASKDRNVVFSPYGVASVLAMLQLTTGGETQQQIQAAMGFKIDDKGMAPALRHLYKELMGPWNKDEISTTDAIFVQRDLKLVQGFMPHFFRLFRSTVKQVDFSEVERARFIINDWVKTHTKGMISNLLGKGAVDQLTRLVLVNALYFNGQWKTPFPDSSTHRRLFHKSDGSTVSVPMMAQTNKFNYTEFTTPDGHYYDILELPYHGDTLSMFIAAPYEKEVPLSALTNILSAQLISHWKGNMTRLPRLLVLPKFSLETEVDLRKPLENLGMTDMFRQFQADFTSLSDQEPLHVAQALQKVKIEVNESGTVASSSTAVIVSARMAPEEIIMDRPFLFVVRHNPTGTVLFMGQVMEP
Description: Test compounds are dissolved in DMSO at a final concentration of 10 mM, then diluted 100× in physiologic buffer. The inhibitory assay is initiated by the addition of the test compound (1–100 μM final concentration, !maximum DMSO concentration of 0.2%) in a pH 6.6 buffer containing 140 nM recombinant human plasminogen activator inhibitor-1 (PAI-1; Molecular Innovations, Royal Oak, Mich.). Following a 1 hour incubation at room temperature, 70 nM of recombinant human tissue plasminogen activator (tPA) is added, and the combination of the test compound, PAI-1 and tPA is incubated for an additional 30 minutes. Following the second incubation, Spectrozyme-tPA (American Diagnostica, Greenwich, Conn.), a chromogenic substrate for tPA, is added and absorbance read at 405 nm at 0 and 60 minutes. Relative PAI-1 inhibition is equal to the residual tPA activity in the presence of the test compound and PAI-1. Control treatments include the complete inhibition of tPA by PAI-1 at the molar ratio employed (2:1), and the absence of any effect of the test compound on tPA alone.

| SMILES | inhibition at 25 µM [1] [%] | melting point [°C] |
| --- | --- | --- |
| O=C(Cc1ccccc1)c1c(-c2ccc3c(Br)c(OCc4nnn[nH]4)ccc3c2)sc2ccccc12 [Compound 3, 1-{2-[5-Bromo-6-(1H-tetrazol-5-ylmethoxy)-naphthalen-2-yl]-benzo[b]thiophen-3-yl}-2-phenyl-ethanone] | 52 |  |
| CCCCC(=O)c1c(-c2ccc3c(Br)c(OCc4nnn[nH]4)ccc3c2)sc2ccccc12 [Compound 1, 1-{2-[5-Bromo-6-(1H-tetrazol-5-ylmethoxy)-naphthalen-2-yl]-benzo[b]thiophen-3-yl}-pentan-1-one] | 59 |  |
| CCCCC(=O)c1c(-c2ccc3c(Br)c(OCC(=O)O)ccc3c2)sc2ccccc12 [Compound 2, [1-Bromo-6-(3-pentanoyl-benzo[b]thiophen-2-yl)-naphthalen-2-yloxy]-acetic acid] | 69 | 164 to 165 |

The next lines start with the values.

| inhibition at 25 µM [1] [%] | melting point [°C] | SMILES |
| --- | --- | --- |
| 77 | 206 to 207 | CC(C)(C)CC(=O)c1c(-c2ccc3c(Br)c(OCC(=O)O)ccc3c2)sc2ccccc12 [Compound 6, {1-Bromo-6-[3-(3,3-dimethyl-butyryl)-benzo[b]thiophen-2-yl]-naphthalen-2-yloxy}-acetic acid] |
| 54 | 170 to 172 | O=C(O)COc1ccc2cc(-c3sc4ccccc4c3C(=O)Cc3ccccc3)ccc2c1Br [Compound 4, [1-Bromo-6-(3-phenylacetyl-benzo[b]thiophen-2-yl)-naphthalen-2-yloxy]-acetic acid] |
| 84 |  | CC(C)CC(=O)c1c(-c2ccc3c(Br)c(OCc4nnn[nH]4)ccc3c2)sc2ccccc12 [Compound 5, 1-{2-[5-Bromo-6-(1H-tetrazol-5-ylmethoxy)-naphthalen-2-yl]-benzo[b]thiophen-3-yl}-3-methyl-butan-1-one] |
